Measured values: BindingDB's records for doi:10.1002/cbic.200800304 (Research Institute, Hospital For Sick Children, 2008)

Molecular target: T1, Lysosomal acid glucosylceramidase (Homo sapiens, UniProt P04062)
T1 sequence (P04062 whole entry): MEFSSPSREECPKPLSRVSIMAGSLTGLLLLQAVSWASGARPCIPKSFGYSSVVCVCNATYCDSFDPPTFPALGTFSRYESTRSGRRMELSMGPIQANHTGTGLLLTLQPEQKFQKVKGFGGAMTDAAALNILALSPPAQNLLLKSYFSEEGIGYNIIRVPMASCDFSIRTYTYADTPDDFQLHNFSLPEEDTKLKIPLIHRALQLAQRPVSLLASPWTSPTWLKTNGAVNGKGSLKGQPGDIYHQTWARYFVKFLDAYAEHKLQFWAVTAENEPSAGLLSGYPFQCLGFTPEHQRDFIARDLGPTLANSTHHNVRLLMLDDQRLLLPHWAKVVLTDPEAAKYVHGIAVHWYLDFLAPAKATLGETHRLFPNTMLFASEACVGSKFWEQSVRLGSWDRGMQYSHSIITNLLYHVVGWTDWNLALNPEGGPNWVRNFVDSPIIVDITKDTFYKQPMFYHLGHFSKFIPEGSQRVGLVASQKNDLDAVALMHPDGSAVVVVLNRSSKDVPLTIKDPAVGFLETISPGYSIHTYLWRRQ
Test: Inhibiton Assay
Details: pH 5.5; 37 °C
Protocol: Beta-glucocerebrosidase (GCase) activity was measured by release of 4-methylumbelliferyl fluorophore from MUClc.

Compound	IC50 [µM]
Cc1ccc(Sc2cccc3nc(N)nc(N)c23)cc1	7.8
CC(C)(C)C(=O)Nc1ccncc1 [2,2-dimethyl-N-(4-pyridinyl)propanamide, 2b]	> 400
Nc1nc(N)c2cc([N+](=O)[O-])ccc2n1 [2,4-diamino-6-nitro-quinazoline, 1a]	61
O=C(Nc1ccncc1)c1ccc(Oc2cc(Cl)cc(Cl)c2)o1 [5-(3,5-dichlorophenoxy)-N-(4-pyrdinyl)-2-furamide, 2]	4.7
CCOc1ccc2c(N)nc(N)nc2c1OCC [7,8-diethoxy-quinazoline 2,4-diamine, 1b]	22
